In US11066413B2, “Aminopyrimidine five-membered heterocyclic compound, and intermediate, preparation method, pharmaceutical composition and application thereof” (GUANGZHOU MAXINOVEL PHARMACEUTICALS CO., LTD., priority 2017, dated 2021):

molecular target: hA2A receptor (Homo sapiens (Human), UniProt P29274); experiment: binding affinity IC50 to hA2A receptor ([3H]-CGS 21680 filter binding, Effect Embodiment 2); conditions: A2A membrane, [3H]-CGS 21680 (final 25 nM), 90 minutes at 25° C.
Method: Evaluation experiment of the binding affinity IC50 of the compounds 1-61 to hA2A receptor
40 uL of ULTIMA GOLD scintillation fluid was added to each well and the CPM (count per minute) value was read by TopCount.

Sequence of hA2A receptor (P29274 whole entry): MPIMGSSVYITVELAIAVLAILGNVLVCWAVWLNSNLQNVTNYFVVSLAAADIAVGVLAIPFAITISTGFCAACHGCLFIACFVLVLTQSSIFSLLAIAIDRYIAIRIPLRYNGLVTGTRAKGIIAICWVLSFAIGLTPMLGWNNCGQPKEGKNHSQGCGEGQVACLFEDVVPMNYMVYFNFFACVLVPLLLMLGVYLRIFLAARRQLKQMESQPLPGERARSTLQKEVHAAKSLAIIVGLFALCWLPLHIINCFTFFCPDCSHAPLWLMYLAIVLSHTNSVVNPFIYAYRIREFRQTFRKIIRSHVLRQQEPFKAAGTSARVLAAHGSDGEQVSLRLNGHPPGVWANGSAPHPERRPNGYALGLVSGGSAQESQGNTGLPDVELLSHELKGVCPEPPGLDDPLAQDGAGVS

| Molecule | IC50 |
| --- | --- |
| 2-amino-6-(5-methylfuran-2-yl)-9-(2-(trifluoromethyl)phenyl)-8(9H)-carbonyl-7H-purine [Compound 60] | 177 nM |
| 2-amino-9-((2-fluorophenyl)methyl)-6-(furan-2-yl)-7-methyl-8,9-dihydro-7H-purinyl-8-one [Compound 40] | 106 nM |
| Nc1nc(-c2ccco2)c2c(n1)C(Cc1ccc(Cl)cc1F)OC2=O (stereo not drawn) [Compound 2, 2-amino-7-(4-chloro-2-fluorobenzyl)-4-(furan-2-yl)-5H,7H-furo[3,4-d]pyrimidin-5-one] | 39.3 nM |
| N#Cc1ccc(CC2OC(=O)c3c(-c4ccco4)nc(N)nc32)cc1F (stereo not drawn) [Compound 3] | 159 nM |
| N#Cc1ccc(CC2OC(=O)c3c(-c4ccco4)nc(N)nc32)cc1 (stereo not drawn) [Compound 4] | 249 nM |
| Nc1nc(-c2ccco2)c2c(n1)C(Cc1ccccc1)OC2=O (stereo not drawn) [Compound 5, 2-amino-7-benzyl-4-(furan-2-yl)-5H,7H-furo[3,4-d]pyrimidin-5-one] | 40 nM |
| Nc1nc(-c2ccco2)c2c(n1)[C@@H](Cc1ccccc1)OC2 [Compound 6, (R)-7-benzyl-4-(furan-2-yl)-5,7-dihydrofuro[3,4-d]pyrimidin-2-amine] | 157 nM |
| Nc1nc(-c2ccco2)c2c(n1)C(Cc1ccc(F)cc1F)OC2=O (stereo not drawn) [Compound 8, 2-amino-7-(2,4-difluorobenzyl)-4-(furan-2-yl)-5H,7H-furo[3,4-d]pyrimidin-5-one] | 10.7 nM |
| Nc1nc(-c2ccco2)c2c(n1)C(Cc1ccc(F)cc1Cl)OC2=O (stereo not drawn) [Compound 10, 2-amino-7-(2-chloro-4-fluorobenzyl)-4-(furan-2-yl)-5H,7H-furo[3,4-d]pyrimidin-5-one] | 114 nM |
| Nc1nc(-c2ccco2)c2c(n1)C(Cc1ccccc1Cl)OC2=O (stereo not drawn) [Compound 11, 2-amino-7-(2-chlorobenzyl)-4-(furan-2-yl)-5H,7H-furo[3,4-d]pyrimidin-5-one] | 32.1 nM |
| Nc1nc(-c2ccco2)c2c(n1)C(Cc1ccc(Cl)c(F)c1)OC2=O (stereo not drawn) [Compound 12, 2-amino-7-(4-chloro-3-fluorobenzyl)-4-(furan-2-yl)-5H,7H-furo[3,4-d]pyrimidin-5-one] | 99.8 nM |
| CS(=O)(=O)c1ccc(CC2OC(=O)c3c(-c4ccco4)nc(N)nc32)cc1 (stereo not drawn) [Compound 13, 2-amino-4-(furan-2-yl)-7-(4-methylsulfonylbenzyl)-5H,7H-furo[3,4-d]pyrimidin-5-one] | 152 nM |
| NC(=O)c1ccc(CC2OC(=O)c3c(-c4ccco4)nc(N)nc32)cc1 (stereo not drawn) [Compound 14, 4-((2-amino-4-(furan-2-yl)-5-oxo-5H,7H-furo[3,4-d]pyrimidin-7-yl)methyl)benzamide] | 218 nM |
| Nc1nc(-c2ccco2)c2c(n1)C(Cc1ccc(C(F)(F)F)cc1)OC2=O (stereo not drawn) [Compound 15] | 274 nM |
| Nc1nc(-c2ccco2)c2c(n1)C(Cc1ccccc1C(F)(F)F)OC2=O (stereo not drawn) [Compound 16, 2-amino-4-(furan-2-yl)-7-((2-(trifluoromethyl)phenyl)methyl)-5H,7H-furo[3,4-d]pyrimidin-5-one] | 15.7 nM |
| Nc1nc(-c2ccco2)c2c(n1)C(Cc1c(F)cccc1Cl)OC2=O (stereo not drawn) [Compound 17, 2-amino-7-((2-chloro-6-fluorophenyl)methyl)-4-(furan-2-yl)-5H,7H-furo[3,4-d]pyrimidin-5-one] | 29.2 nM |
| Nc1nc(-c2ccco2)c2c(n1)C(Cc1cccc(Cl)c1F)OC2=O (stereo not drawn) [Compound 18, 2-amino-7-((3-chloro-2-fluorophenyl)methyl)-4-(furan-2-yl)-5H,7H-furo[3,4-d]pyrimidin-5-one] | 73.7 nM |
| Cc1ccccc1CC1OC(=O)c2c(-c3ccco3)nc(N)nc21 (stereo not drawn) [Compound 19, 2-amino-7-((2-methylphenyl)methyl)-4-(furan-2-yl)-5H,7H-furo[3,4-d]pyrimidin-5-one] | 31.1 nM |
| Nc1nc(-c2ccco2)c2c(n1)C(Cc1cc(C(F)(F)F)cc(C(F)(F)F)c1)OC2=O (stereo not drawn) [Compound 20, 2-amino-7-((3,5-di(trifluoromethyl)phenyl)methyl)-4-(furan-2-yl)-5H,7H-furo[3,4-d]pyrimidin-5-one] | 299 nM |
| Nc1nc(-c2ccco2)c2c(n1)C(Cc1ccc(OC(F)(F)F)cc1)OC2=O (stereo not drawn) [Compound 21, 2-amino-7-((4-(trifluoromethoxyl)phenyl)methyl)-4-(furan-2-yl)-5H,7H-furo[3,4-d]pyrimidin-5-one] | 106 nM |
| Nc1nc(-c2ccco2)c2c(n1)C(Cc1c(F)cccc1F)OC2=O (stereo not drawn) [Compound 22, 2-amino-7-((2,6-difluorophenyl)methyl)-4-(furan-2-yl)-5H,7H-furo[3,4-d]pyrimidin-5-one] | 47.3 nM |

| Molecule | IC50 |
| --- | --- |
| Nc1nc(-c2ccco2)c2c(n1)C(Cc1ccccc1OC(F)(F)F)OC2=O (stereo not drawn) [Compound 23, 2-amino-7-((2-(trifluoromethoxyl)phenyl)methyl)-4-(furan-2-yl)-5H,7H-furo[3,4-d]pyrimidin-5-one] | 3.9 nM |
| Nc1nc(-c2ccccn2)c2c(n1)C(Cc1ccccc1)OC2=O (stereo not drawn) [Compound 24, 2-amino-7-benzyl-4-(pyridin-2-yl)-5H,7H-furo[3,4-d]pyrimidin-5-one] | 918 nM |
| Cc1ccc(-c2nc(N)nc3c2C(=O)OC3Cc2ccc(F)cc2F)o1 (stereo not drawn) [Compound 26, 2-amino-7-((2,4-difluorophenyl)methyl)-4-(5-methylfuran-2-yl)-5H,7H-furo[3,4-d]pyrimidin-5-one] | 32.1 nM |
| Cc1ccc(-c2nc(N)nc3c2C(=O)OC3Cc2ccccc2F)o1 (stereo not drawn) [Compound 27, 2-amino-7-((2-fluorophenyl)methyl)-4-(5-methylfuran-2-yl)-5H,7H-furo[3,4-d]pyrimidin-5-one] | 21 nM |
| Cc1ccc(-c2nc(N)nc3c2C(=O)OC3Cc2ccccc2C(F)(F)F)o1 (stereo not drawn) [Compound 28, 2-amino-7-((2-(trifluoromethyl)phenyl)methyl)-4-(5-methylfuran-2-yl)-5H,7H-furo[3,4-d]pyrimidin-5-one] | 11.2 nM |
| Cc1ccc(-c2nc(N)nc3c2C(=O)OC3Cc2cc(F)ccc2F)o1 (stereo not drawn) [Compound 29, 2-amino-7-((2,5-difluorophenyl)methyl)-4-(5-methylfuran-2-yl)-5H,7H-furo[3,4-d]pyrimidin-5-one] | 252 nM |
| Cc1ccc(-c2nc(N)nc3c2C(=O)OC3Cc2cc(Cl)ccc2F)o1 (stereo not drawn) [Compound 30, 2-amino-7-((5-chloro-2-fluorophenyl)methyl)-4-(5-methylfuran-2-yl)-5H,7H-furo[3,4-d]pyrimidin-5-one] | 94 nM |
| Cc1ccc(-c2nc(N)nc3c2C(=O)OC3Cc2c(F)cccc2Cl)o1 (stereo not drawn) [Compound 31, 2-amino-7-((6-chloro-2-fluorophenyl)methyl)-4-(5-methylfuran-2-yl)-5H,7H-furo[3,4-d]pyrimidin-5-one] | 38.4 nM |
| Cc1ccc(-c2nc(N)nc3c2C(=O)OC3Cc2ccc(F)cc2C(F)(F)F)o1 (stereo not drawn) [Compound 32, 2-amino-7-((4-fluoro-2-(trifluoromethyl)phenyl)methyl)-4-(5-methylfuran-2-yl)-5H,7H-furo[3,4-d]pyrimidin-5-one] | 19.9 nM |
| Nc1nc(-c2ccco2)c2c(n1)[C@H](Cc1ccccc1)OC2 [Compound 33, (S)-7-benzyl-4-(furan-2-yl)-5,7-dihydrofuro[3,4-d]pyrimidin-2-amine] | 275 nM |
| Cn1c(=O)n(Cc2ccc(F)cc2F)c2nc(N)nc(-c3ccco3)c21 [Compound 35, 2-amino-9-((2,4-difluorophenyl)methyl)-6-(furan-2-yl)-7-methyl-8,9-dihydro-7H-purinyl-8-one] | 30.1 nM |
| Cc1ccc(-c2nc(N)nc3c2C(=O)OC3Cc2ccccc2OC(F)(F)F)o1 (stereo not drawn) [Compound 36, 2-amino-7-((2-(trifluoromethoxyl)phenyl)methyl)-4-(5-methylfuran-2-yl)-5H,7H-furo[3,4-d]pyrimidin-5-one] | 28.1 nM |
| Nc1nc(-c2ccc(Br)o2)c2c(n1)C(Cc1ccccc1OC(F)(F)F)OC2=O (stereo not drawn) [Compound 37, 2-amino-7-((2-(trifluoromethoxyl)phenyl)methyl)-4-(5-bromofuran-2-yl)-5H,7H-furo[3,4-d]pyrimidin-5-one] | 67.4 nM |
| CN1C(=O)c2c(nc(N)nc2-c2ccco2)C1=Cc1ccccc1F [Compound 38, 2-amino-7-((2-fluorophenyl)methylene)-4-(furan-2-yl)-6-methyl-5H,6H,7H-pyrrolo[3,4-d]pyrimidin-5-one] | 6.1 nM |
| Cc1ccc(-c2nc(N)nc3c2C(=O)OC3Cc2ccccc2OC(F)F)o1 (stereo not drawn) [Compound 39, 2-amino-7-((2-(difluoromethoxyl)phenyl)methyl)-4-(5-methylfuran-2-yl)-5H,7H-furo[3,4-d]pyrimidin-5-one] | 128 nM |
| Cn1c(=O)n(Cc2ccccc2F)c2nc(N)nc(-c3ccco3)c21 [Compound 41, 2-amino-9-((2-fluorophenyl)methyl)-6-(furan-2-yl)-7-methyl-8,9-dihydro-7H-purinyl-8-one] | 43.5 nM |
| Cc1ccc(-c2nc(N)nc3c2C(=O)OC3Cc2ccc(F)cc2F)o1 (stereo not drawn) [Compound 42, 2-amino-7-((2,4-difluorophenyl)methyl)-7-deuterium-4-(5-methylfuran-2-yl)-5H,7H-furo[3,4-d]pyrimidin-5-one] | 87.4 nM |
| Cc1ccc(-c2nc(N)nc3c2C(=O)OC3(C)Cc2ccccc2F)o1 (stereo not drawn) [Compound 43, 2-amino-7-((2-fluorophenyl)methyl)-7-methyl-4-(5-methylfuran-2-yl)-5H,7H-furo[3,4-d]pyrimidin-5-one] | 992 nM |
| CN1C(=O)c2c(-c3ccco3)nc(N)nc2C1Cc1ccccc1F (stereo not drawn) [Compound 44, 2-amino-7-((2-fluorophenyl)methyl)-4-(furan-2-yl)-6-methyl-5H,6H,7H-pyrrolo[3,4-d]pyrimidin-5-one] | 64.6 nM |
| CN1C(=O)c2c(-c3ccco3)nc(N)nc2C1Cc1ccccc1OC(F)(F)F (stereo not drawn) [Compound 45, 2-amino-7-((2-trifluoromethoxylphenyl)methyl)-4-(furan-2-yl)-6-methyl-5H,6H,7H-pyrrolo[3,4-d]pyrimidin-5-one] | 11.6 nM |
| CN1C(=O)c2c(nc(N)nc2-c2ccco2)C1=Cc1ccc(F)cc1F [Compound 46, 2-amino-7-((2,4-difluorophenyl)methylene)-4-(furan-2-yl)-6-methyl-5H,6H,7H-pyrrolo[3,4-d]pyrimidin-5-one] | 8.7 nM |
